The values below come from PubChem BioAssay (NCI).

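Test compounds were applied to cells in 96-well plates for 48 hours at 5 doses. Abbreviation: GI50, concentration required for 50% inhibition of growth. At the TGI there is no net growth.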

Some test systems named below: CCRF-CEM leukemia; HOP-92 NSCLC; NCI-H23 lung; NCI-H522 lung; OVCAR-8 ovarian; SF-295 CNS; SK-MEL-2 melanoma; SNB-75 CNS; SW-620 colon; U251 CNS.
Holding throughout (test): inhibition of tumour cell growth, NCI panel, 48 h

Consider `S=C(Nc1ccc(-c2nc3ccccc3[nH]2)cc1)NC1CCCCC1`, for which the GI50 with CCRF-CEM leukemia was 36.8 µM; in the experiment on HOP-92 NSCLC it was 35.3 µM; in the experiment with NCI-H23 lung, 23.2 µM; in the experiment on NCI-H522 lung, 12.9 µM; in the experiment on OVCAR-8 ovarian, 26.3 µM; in the experiment on SF-295 CNS, 7.06 µM. The GI50 in the experiment on SK-MEL-2 melanoma is 36.5 µM; in the experiment on SNB-75 CNS, 25.1 µM; in the experiment with SW-620 colon, 31.6 µM; with U251 CNS, 19.7 µM. The TGI in the experiment with NCI-H23 lung was 68.3 µM; with NCI-H522 lung, 35.3 µM; in the experiment on OVCAR-8 ovarian it was 83.7 µM; in the experiment with SF-295 CNS, 30.3 µM; in the experiment on SNB-75 CNS, over 100 µM; in the experiment with U251 CNS it was 45.2 µM.
In the case of `Nc1nc(-c2cccc([N+](=O)[O-])c2)c(Br)c(=O)[nH]1`, the TGI in the experiment with CCRF-CEM leukemia was over 100 µM; in the experiment on HOP-92 NSCLC, over 100 µM; with NCI-H23 lung it was over 100 µM; with NCI-H522 lung it was over 100 µM; with OVCAR-8 ovarian, over 100 µM; in the experiment on SF-295 CNS it was over 66.6 µM. In addition, the TGI in the experiment with SK-MEL-2 melanoma, in the experiment on SNB-75 CNS, in the experiment on SW-620 colon and in the experiment with U251 CNS was over 100 µM each time.
On to `COC1=CC23C=CC1[C@@H](c1ccccc1)C2=C(C)C(=O)N3C(=O)NC1CCCCC1` (stereo partly specified), for which the TGI in the experiment with CCRF-CEM leukemia worked out at 72.5 µM; in the experiment on HOP-92 NSCLC, 47.5 µM; in the experiment on NCI-H23 lung, 57.5 µM; in the experiment on NCI-H522 lung, 41.3 µM; in the experiment with OVCAR-8 ovarian, 64.6 µM; in the experiment with SF-295 CNS it was 53.7 µM. Moreover, the TGI in the experiment on SK-MEL-2 melanoma was 39.5 µM; in the experiment on SNB-75 CNS, over 100 µM; in the experiment with SW-620 colon it was 47.8 µM; with U251 CNS, 35.4 µM.
Regarding `CC(=O)O[C@H]1C(N(C)C(=O)c2ccccc2)CC[C@]2(C)C3CC[C@@]4(C)C(CC(O)[C@@H]4C(C)N(C)C)[C@@H]3CCC12` (stereo partly specified), the TGI in the experiment on CCRF-CEM leukemia, with HOP-92 NSCLC, with NCI-H23 lung, in the experiment on NCI-H522 lung, in the experiment on OVCAR-8 ovarian and with SF-295 CNS was over 100 µM throughout. For the same molecule, the TGI with SK-MEL-2 melanoma, in the experiment on SNB-75 CNS, in the experiment on SW-620 colon and in the experiment on U251 CNS was over 100 µM each time.
`CCOC(=O)[C@@H](C)C[C@H](Cc1ccccc1)NC(=O)c1csc([C@@H](C[C@H](C(C)C)N(C)C(=O)[C@@H](NC(=O)[C@H]2C[C@H](O[Si](C)(C)C(C)(C)C)CCN2C)C(C)C)OC(C)=O)n1`: the GI50 with CCRF-CEM leukemia is 0.298 µM; in the experiment on HOP-92 NSCLC, 0.181 µM; with NCI-H23 lung, 0.333 µM; in the experiment with NCI-H522 lung it was 0.128 µM; with OVCAR-8 ovarian it was 0.744 µM; with SF-295 CNS it was 0.249 µM. In addition, the GI50 in the experiment with SK-MEL-2 melanoma is 0.263 µM; in the experiment on SNB-75 CNS, 0.205 µM; in the experiment on SW-620 colon, 0.319 µM; in the experiment on U251 CNS, 0.319 µM. For the same molecule, the TGI with CCRF-CEM leukemia was over 6.87 µM; in the experiment with HOP-92 NSCLC, 6.06 µM; in the experiment with NCI-H23 lung it was over 8.33 µM; with NCI-H522 lung, 1.03 µM; in the experiment on OVCAR-8 ovarian it was over 8.33 µM; in the experiment with SF-295 CNS it was 3.41 µM. Further, the TGI in the experiment on SK-MEL-2 melanoma was over 7.21 µM; with SNB-75 CNS, 0.76 µM; with SW-620 colon it was over 8.33 µM; in the experiment with U251 CNS it was over 4.18 µM.
`NC(N)=N/N=C(/c1nc2ccc([N+](=O)[O-])cc2[nH]c1=O)C(O)c1ccco1` (stereo unspecified): the TGI in the experiment on CCRF-CEM leukemia, with HOP-92 NSCLC, with NCI-H23 lung, in the experiment on NCI-H522 lung, in the experiment on OVCAR-8 ovarian and with SF-295 CNS was over 100 µM throughout. The TGI with SK-MEL-2 melanoma, in the experiment on SNB-75 CNS, in the experiment on SW-620 colon and in the experiment on U251 CNS was over 100 µM throughout.
Turning to `CC(C)c1ccc(Cc2cnc(NC(=O)c3cc(Br)cs3)s2)cc1`, the GI50 in the experiment with CCRF-CEM leukemia was 4.08 µM; with HOP-92 NSCLC it was 5.51 µM; in the experiment on NCI-H23 lung it was 3.45 µM; in the experiment on NCI-H522 lung, 1.48 µM; in the experiment on OVCAR-8 ovarian it was 4.4 µM; in the experiment on SF-295 CNS, 2 µM. Also, the GI50 in the experiment on SK-MEL-2 melanoma was 7.43 µM; in the experiment with SNB-75 CNS, 1.05 µM; with SW-620 colon, 2.98 µM; in the experiment on U251 CNS it was 3.42 µM. Further, the TGI in the experiment with CCRF-CEM leukemia is over 100 µM; in the experiment with HOP-92 NSCLC, 87.5 µM; in the experiment with NCI-H23 lung it was over 100 µM; in the experiment on NCI-H522 lung, 5.76 µM; in the experiment on OVCAR-8 ovarian, over 100 µM; with SF-295 CNS, 19.6 µM. Also, the TGI was 64.4 µM in the experiment on SK-MEL-2 melanoma, 7.76 µM in the experiment with SNB-75 CNS, over 100 µM in the experiment with SW-620 colon and over 100 µM in the experiment with U251 CNS.
As to `CCN(CC)c1ccc(N=Nc2ccc(-c3nc4cccnc4o3)cc2)cc1`, the TGI with CCRF-CEM leukemia, with HOP-92 NSCLC, in the experiment with NCI-H23 lung, in the experiment with NCI-H522 lung, in the experiment on OVCAR-8 ovarian and with SF-295 CNS was over 100 µM throughout. In addition, the TGI with SK-MEL-2 melanoma, in the experiment with SNB-75 CNS, in the experiment with SW-620 colon and with U251 CNS was over 100 µM throughout.
For the molecule `Clc1nc(Oc2ccccc2)nc(-c2cn(-c3ccccc3)c3ccccc23)n1`, the GI50 was 3.99 µM in the experiment on CCRF-CEM leukemia; 4.07 µM in the experiment with HOP-92 NSCLC; 7.31 µM in the experiment on NCI-H23 lung; 1.88 µM with NCI-H522 lung; 3.25 µM in the experiment on OVCAR-8 ovarian; over 44.7 µM in the experiment on SF-295 CNS. The GI50 is 4.66 µM in the experiment with SK-MEL-2 melanoma, 13.7 µM with SNB-75 CNS, 2.92 µM in the experiment on SW-620 colon and 2.53 µM in the experiment with U251 CNS. The TGI with CCRF-CEM leukemia is 20.3 µM; in the experiment on HOP-92 NSCLC, 20.7 µM; in the experiment on NCI-H23 lung it was 22.4 µM; with NCI-H522 lung it was 3.88 µM; in the experiment with OVCAR-8 ovarian, 11 µM; in the experiment on SF-295 CNS, over 61 µM. Besides, the TGI with SK-MEL-2 melanoma was found to be 18.5 µM; in the experiment with SNB-75 CNS, 26.6 µM; in the experiment with SW-620 colon, 9.24 µM; in the experiment on U251 CNS, 6.36 µM.
Take `COc1cc2nc(-c3ccc(C(F)(F)F)cc3)cc(OCCCN3CCOCC3)c2cc1OC`: the GI50 was 2.79 µM in the experiment on CCRF-CEM leukemia; 1 µM in the experiment on HOP-92 NSCLC; 2.36 µM with NCI-H23 lung; 2.52 µM with NCI-H522 lung; 1.95 µM in the experiment with OVCAR-8 ovarian; 0.349 µM in the experiment with SF-295 CNS. In addition, the GI50 is 3.32 µM with SK-MEL-2 melanoma, 2.46 µM with SNB-75 CNS, 3.51 µM with SW-620 colon and 1.4 µM in the experiment on U251 CNS. In addition, the TGI came to 19.3 µM with CCRF-CEM leukemia; 4.66 µM in the experiment with HOP-92 NSCLC; 12 µM with NCI-H23 lung; 15.3 µM with NCI-H522 lung; 28.8 µM in the experiment with OVCAR-8 ovarian; 1.68 µM with SF-295 CNS. Moreover, the TGI in the experiment on SK-MEL-2 melanoma amounted to 13.1 µM; in the experiment with SNB-75 CNS, 9.51 µM; with SW-620 colon, 15.4 µM; in the experiment with U251 CNS it was 14.3 µM.
